Measurements reported in ChEMBL document CHEMBL1201862, “PubChem BioAssay data set” (2004).
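48-hour exposure; five concentrations; linearly interpolated endpoints. GI50 marks 50% less growth.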 Activity calls are given as the source filed them. Rule as the data show it: active = GI50 up to about 1.1 µM and inactive = higher.

Key:
Experiment in all cases: inhibition of tumour cell growth, NCI panel, 48 h
U-251 = test system: U-251
786-0 = test system: 786-0
TK-10 = test system: TK-10
MOLT-4 = test system: MOLT-4
UACC-257 = test system: UACC-257
HOP-62 = test system: HOP-62
OVCAR-3 = test system: OVCAR-3
MDA-MB-231 = test system: MDA-MB-231
SW-620 = test system: SW-620
MCF7 = test system: MCF7
SK-MEL-5 = test system: SK-MEL-5
COLO 205 = test system: COLO 205
K562 = test system: K562
DU-145 = test system: DU-145
T47D = test system: T47D
HT-29 = test system: HT-29
MDA-MB-435 = test system: MDA-MB-435
Malme-3M = test system: Malme-3M
PC-3 = test system: PC-3
HL-60 = test system: HL-60

Compound	GI50 (U-251)	GI50 (786-0)	GI50 (TK-10)	GI50 (MOLT-4)	GI50 (UACC-257)	GI50 (HOP-62)	GI50 (OVCAR-3)	GI50 (MDA-MB-231)	GI50 (SW-620)	GI50 (MCF7)	GI50 (SK-MEL-5)	GI50 (COLO 205)	GI50 (K562)	GI50 (DU-145)	GI50 (T47D)	GI50 (HT-29)	GI50 (MDA-MB-435)	GI50 (Malme-3M)	GI50 (PC-3)	GI50 (HL-60)
O=C(/C(Cl)=C/c1ccccc1)c1ccccc1	4.27 µM (inactive)	1.53 µM (inactive)	3.21 µM (inactive)	2.61 µM (inactive)	6.9 µM (inactive)	19.2 µM (inactive)	2.21 µM (inactive)	5.6 µM (inactive)	1.84 µM (inactive)	2.05 µM (inactive)	3.11 µM (inactive)	2.58 µM (inactive)	2.06 µM (inactive)	6.32 µM (inactive)	4.07 µM (inactive)	1.46 µM (inactive)	3.01 µM (inactive)	2 µM (inactive)	2.61 µM (inactive)	–
C=C1C(=O)O[C@H]2[C@@H](O)[C@H](C)CCC[C@]3(C)O[C@H]3CC[C@@]3(C)O[C@@H]3C[C@@H]12	8.57 µM (inactive)	5.15 µM (inactive)	–	1.55 µM (inactive)	–	7.4 µM (inactive)	4.31 µM (inactive)	4.08 µM (inactive)	1.52 µM (inactive)	2.08 µM (inactive)	4.04 µM (inactive)	3.01 µM (inactive)	1.14 µM (inactive)	6.52 µM (inactive)	7.66 µM (inactive)	5.66 µM (inactive)	3.74 µM (inactive)	–	7.43 µM (inactive)	0.897 µM (active)
O=P1(O)c2ccccc2CSCc2ccccc21	> 100 µM (inactive)	> 100 µM (inactive)	> 100 µM (inactive)	> 100 µM (inactive)	> 100 µM (inactive)	> 100 µM (inactive)	> 100 µM (inactive)	> 100 µM (inactive)	> 100 µM (inactive)	> 100 µM (inactive)	> 100 µM (inactive)	> 100 µM (inactive)	> 100 µM (inactive)	> 100 µM (inactive)	> 100 µM (inactive)	> 100 µM (inactive)	> 100 µM (inactive)	–	> 100 µM (inactive)	> 100 µM (inactive)
O=S(=O)(O)c1ccc(/N=N/c2ccccc2)cc1	> 100 µM (inactive)	> 100 µM (inactive)	> 100 µM (inactive)	> 100 µM (inactive)	> 100 µM (inactive)	> 100 µM (inactive)	> 100 µM (inactive)	> 100 µM (inactive)	> 100 µM (inactive)	> 100 µM (inactive)	> 100 µM (inactive)	> 100 µM (inactive)	> 100 µM (inactive)	> 100 µM (inactive)	> 100 µM (inactive)	> 100 µM (inactive)	> 100 µM (inactive)	–	> 100 µM (inactive)	> 100 µM (inactive)
COC(=O)C1CCC(=O)N1C(c1cc(OC)c(OC)c(OC)c1)c1cccc2ccccc12 (stereo not drawn)	> 100 µM (inactive)	> 100 µM (inactive)	> 100 µM (inactive)	13.8 µM (inactive)	> 100 µM (inactive)	> 100 µM (inactive)	> 100 µM (inactive)	> 100 µM (inactive)	> 100 µM (inactive)	> 100 µM (inactive)	–	–	75.9 µM (inactive)	> 100 µM (inactive)	> 100 µM (inactive)	35.6 µM (inactive)	63.2 µM (inactive)	–	> 100 µM (inactive)	11.7 µM (inactive)
COC(=O)C(Cc1c(C2Nc3ccccc3C2CC(NC(=O)CNC(C)=O)C(=O)OC)[nH]c2ccccc12)NC(=O)CNC(C)=O (stereo not drawn)	> 100 µM (inactive)	> 100 µM (inactive)	> 100 µM (inactive)	–	> 100 µM (inactive)	–	–	> 100 µM (inactive)	> 100 µM (inactive)	> 100 µM (inactive)	> 100 µM (inactive)	> 100 µM (inactive)	> 100 µM (inactive)	> 100 µM (inactive)	> 100 µM (inactive)	> 100 µM (inactive)	> 100 µM (inactive)	> 100 µM (inactive)	–	> 26.6 µM (inactive)
CC(C)(C)NC1C2CCC(C)(C1O)C2(C)C (stereo not drawn)	> 100 µM (inactive)	> 100 µM (inactive)	> 100 µM (inactive)	> 100 µM (inactive)	> 100 µM (inactive)	> 100 µM (inactive)	> 100 µM (inactive)	> 100 µM (inactive)	> 100 µM (inactive)	4.14 µM (inactive)	> 100 µM (inactive)	> 100 µM (inactive)	> 100 µM (inactive)	> 100 µM (inactive)	> 100 µM (inactive)	> 100 µM (inactive)	> 100 µM (inactive)	> 100 µM (inactive)	> 100 µM (inactive)	–
COc1cc2ccnc3c2c(c1O)N(C)C=C3	24.9 µM (inactive)	7.19 µM (inactive)	16.2 µM (inactive)	4.26 µM (inactive)	15.6 µM (inactive)	22 µM (inactive)	4.62 µM (inactive)	22.1 µM (inactive)	12 µM (inactive)	7.35 µM (inactive)	12.8 µM (inactive)	20.7 µM (inactive)	4.68 µM (inactive)	23.7 µM (inactive)	7.38 µM (inactive)	–	11.6 µM (inactive)	6.12 µM (inactive)	13.8 µM (inactive)	–
COc1cc2cc(C(=O)N3CC(CCl)c4c3cc(NC(=O)C(C)Nc3c([N+](=O)[O-])cc(C(=O)NCCN(C)C)cc3[N+](=O)[O-])c3ccccc43)[nH]c2c(OC)c1OC (stereo not drawn)	0.0178 µM (active)	0.0204 µM (active)	0.333 µM (active)	0.0244 µM (active)	0.182 µM (active)	0.0619 µM (active)	0.201 µM (active)	0.18 µM (active)	0.117 µM (active)	0.0118 µM (active)	0.104 µM (active)	0.0515 µM (active)	0.0363 µM (active)	< 0.0182 µM (active)	0.046 µM (active)	0.055 µM (active)	0.16 µM (active)	0.129 µM (active)	0.177 µM (active)	–
COc1cccc(/N=N/C(=NNC(=O)c2ccc(C)cc2)c2ccc(N(C)C)cc2)c1	> 100 µM (inactive)	> 100 µM (inactive)	> 100 µM (inactive)	> 100 µM (inactive)	> 100 µM (inactive)	–	65.2 µM (inactive)	> 100 µM (inactive)	> 100 µM (inactive)	> 100 µM (inactive)	98.2 µM (inactive)	44.3 µM (inactive)	44 µM (inactive)	> 100 µM (inactive)	0.832 µM (active)	> 100 µM (inactive)	21.1 µM (inactive)	–	> 100 µM (inactive)	> 100 µM (inactive)
Nc1ncnc2c1ncn2-c1ccc([N+](=O)[O-])cn1	> 100 µM (inactive)	> 100 µM (inactive)	> 100 µM (inactive)	–	> 100 µM (inactive)	> 100 µM (inactive)	> 100 µM (inactive)	> 100 µM (inactive)	> 100 µM (inactive)	> 100 µM (inactive)	> 100 µM (inactive)	> 100 µM (inactive)	> 10 µM (inactive)	> 100 µM (inactive)	> 100 µM (inactive)	> 100 µM (inactive)	> 100 µM (inactive)	–	–	> 100 µM (inactive)
